Measured values from patent US20140357512A1, “HISTONE DEACETYLASE (HDAC) BIOMARKERS IN MULTIPLE MYELOMA” (priority 2013, published 2014).

System: human myeloma cell line MM.1S
Assay: SILAC acetylated-lysine peptide profiling, HDAC inhibitor vs DMSO (light/heavy ratio)
Format: cell-based
Excerpt: An embodiment of the invention comprises utilizing the SILAC method in order to quantitate changes in protein expression between two or more populations of cells. The SILAC method is a technique based on mass spectrometry that detects differences in protein abundance among samples using non-radioactive isotopic labeling. The SILAC method is known in the art, and described in detail in Ong et al., “Stable Isotope Labeling by Amino Acids in Cell Culture, SILAC, as a Simple and Accurate Approach to Expression Proteomics”, Molecular & Cellular Proteomics, vol. 1, pp. 376-386 (2002), which is incorporated herein by reference in its entirety.
Briefly, the SILAC method involves growing two populations of cells in cell culture. The first population of cells is grown in growth media containing normal amino acids (“normal media”). The second population of cells is grown in media lacking a standard essential amino acid (such as lysine), but is then supplemented with a non-radioactive, isotopically labeled form of that essential amino acid (such as lysine labeled with ^13C atoms, rather than normal ^12C atoms), which is called “heavy media”. When the two populations of cells are each growing in the medium, they incorporate the amino acids into all of their proteins. The growth of cells maintained in the heavy media is no different from that in normal media. All peptides containing the heavy amino acids are heavier than their normal counterparts. The cells from each of the two populations of cells are lysed. The lysates from each of the two cell populations are then combined. The combined cell lysates are then analyzed by mass spectrometry. Pairs of chemically identical peptides of different stable isotope composition can be differentiated in a mass spectrometer due to their difference in mass. The ratio of peak intensities in the mass spectrum for such peptide pairs reflects the abundance ratio for the two proteins.
This example describes SILAC studies that were performed to compare the effects of three different HDAC inhibitors (Compound A, Compound B, and tubastatin A) to a control on a human multiple myeloma cell line. The HDAC inhibitors were also compared amongst themselves to determine differences in their effects.
A human myeloma cell line MM.1S was grown using either ^12C (light) or ^13C (heavy) lysine containing culture medium. The “heavy” cells were treated with DMSO as the control, and the “light” cells were treated with a single HDAC inhibitor at 37° C. for 6 hours. The heavy and light cells were lysed, and the lysates were mixed in 1:1 ratio and digested with the protease trypsin. The acetylated lysine containing peptides (due to the action of the HDAC inhibitor) in the digested peptide pool were captured by a non-specific anti-acetylated lysine antibody cocktail (the antibodies identify both light and heavy acetylated peptides), and subjected to mass spectrometry analysis in order to identify thousands of individual peptides.
Thousands of peptides were identified in pairs (^12C and ^13C) due to their known mass differences. The amino acid sequence and quantitative ratio (Light/Heavy) of a given peptide in two differentially treated cell lysates were then determined and annotated with their possible protein (gene) sources.
As stated above, three HDAC inhibitors (Compound A, Compound B, and Tubastatin A) were used. Thus, the SILAC method was performed three times, with a different HDAC inhibitor compared to a control each time. Accordingly, there are three pairs of quantitative data in the table below, i.e., Compound A:DMSO, Compound B:DMSO, and Tubastatin A:DMSO. A cut-off of 1.30 fold of change (increase or decrease) was then used to determine “changed” or “+” in the table, and any peptides with a fold of change less than 1.3 fold were determined to be “unchanged” or “0” in the table. Those peptides that were not identified were marked as “NA” in the table. […]

## O=C(NO)c1cnc(NC2(c3cccc(F)c3)CCCCC2)nc1 [Compound B, 2-((1-(3-fluorophenyl)cyclohexyl)amino)-N-hydroxypyrimidine-5-carboxamide]
Putative annexin A2-like protein [302], ANXA2P2, drug:DMSO
  light to heavy ratio (L/H ratio) of acetylated peptide SEVDMLK(ac)IR (SEQ ID NO: 295): 0.00 log 2
Putative annexin A2-like protein [310], ANXA2P2, drug:DMSO
  light to heavy ratio (L/H ratio) of acetylated peptide K(ac)[…] (SEQ ID NO: 358): 0.66 log 2
QLNDVK(ac)[…] (SEQ ID NO: 386), Scavenger mRNA-decapping enzyme DcpS [128], DCPS
  L/H ratio of acetylated peptide: 0.97 log 2
RAC2 [153], log 2 scale, drug vs DMSO
  L/H ratio of acetylated peptide EIDSVK(ac)[…] (SEQ ID NO: 73): 0.00
RPAVK(ac)QFHDSK (SEQ ID NO: 203), 60S ribosomal protein L18a [143], RPL18A
  light to heavy ratio (L/H ratio) of acetylated peptide, log 2 scale: 0.00
RPL3L [373], log 2 scale, drug vs DMSO
  L/H ratio of acetylated peptide FIDTTSK(ac)FGHGR (SEQ ID NO: 83): 0.00
RPL4 [274], log 2 scale, drug vs DMSO
  L/H ratio of acetylated peptide AASLK(ac)SNYNLPMHK (SEQ ID NO: 84): 0.00
RPL9 [121], log 2 scale, drug vs DMSO
  L/H ratio of acetylated peptide NFLGEK(ac)YIR (SEQ ID NO: 86): 0.00
RPL18A [41], log 2 scale, drug vs DMSO
  L/H ratio of acetylated peptide […](ac)SR (SEQ ID NO: 79): 0.00
RPL22 [84], log 2 scale, drug vs DMSO
  L/H ratio of acetylated peptide YLK(ac)YLTK (SEQ ID NO: 81): 0.00
RPL27A [47], log 2 scale, drug vs DMSO
  L/H ratio of acetylated peptide INFDK(ac)YHPGYFGK (SEQ ID NO: 82): 0.00
RPS4X [53], log 2 scale, drug vs DMSO
  L/H ratio of acetylated peptide LK(ac)[…] (SEQ ID NO: 89): 0.00
RPS7 [74], log 2 scale, drug vs DMSO
  L/H ratio of acetylated peptide SFQK(ac)IQVR (SEQ ID NO: 90): 0.00
RPS23 [135], log 2 scale, drug vs DMSO
  L/H ratio of acetylated peptide […](ac)GK (SEQ ID NO: 87): 0.00
RPS27A [104], log 2 scale, drug vs DMSO
  L/H ratio of acetylated peptide LAVLK(ac)YYK (SEQ ID NO: 88): 0.00
Rho GDP-dissociation inhibitor 2 [47], ARHGDIB, drug:DMSO
  light to heavy ratio (L/H ratio) of acetylated peptide […](ac)YK (SEQ ID NO: 360): 0.60 log 2
S1 IF1 type family protein [56], EIF1AXP1, drug:DMSO
  light to heavy ratio (L/H ratio) of acetylated peptide […](ac)R (SEQ ID NO: 334): −0.40 log 2
SARNP 17], log 2 scale, drug vs DMSO
  L/H ratio of acetylated peptide LAELK(ac)QECLAR (SEQ ID NO: 94): 0.00
SARNP [10], log 2 scale, drug vs DMSO
  L/H ratio of acetylated peptide (ac)ATETVELHK(ac)LK (SEQ ID NO: 93): 0.00
SELEFK(ac)FNR (SEQ ID NO: 422), Sialic acid synthase [61], NANS
  L/H ratio of acetylated peptide: 0.53 log 2
SEQ ID NO: 630, 60S ribosomal protein L35a [29], RPL35A
  L/H ratio of acetylated peptide EHTALLK(ac)IEGVYAR: 0.00 log 2
SEQ ID NO: 634, Histone H2A type 1-B/E [96], HIST1H2AE, HIST1H2AB, HIST1H2AD, HIST1H2AG, HIST1H2AK, HIST1H2AL, HIST1H2AM, HIST1H2AJ, HIST1H2AI
  L/H ratio of acetylated peptide NDEELNK(ac)LLGR: 0.00 log 2
SEQ ID NO: 636, 60S ribosomal protein L3 [103], SNORD43, RPL3
  L/H ratio of acetylated peptide TFK(ac)[…]: 0.00 log 2
SEQ ID NO: 637, Protein disulfide-isomerase [328], P4HB
  L/H ratio of acetylated peptide YK(ac)[…]: 0.00 log 2
SEQ ID NO: 638, Stress-70 protein mitochondrial [567], HSPA9
  L/H ratio of acetylated peptide NAEK(ac)YAEEDRR: 0.00 log 2
SEQ ID NO: 639, pyruvate dehydrogenase E1 component subunit alpha somatic form mitochondrial isoform 2 precursor [359], PDHA1
  L/H ratio of acetylated peptide […](ac)DR: 0.00 log 2
SEQ ID NO: 645, Chromobox protein homolog 3 [50], CBX3
  L/H ratio of acetylated peptide VEYFLK(ac)WK: 0.00 log 2
SEQ ID NO: 646, Isocitrate dehydrogenase [NADP] mitochondrial [275], IDH2
  L/H ratio of acetylated peptide HYK(ac)TDFDK: 0.00 log 2
SEQ ID NO: 647, tRNA-splicing ligase RtcB homolog [190], C22orf28
  L/H ratio of acetylated peptide EGYAWAEDK(ac)EHCEEYGR: 0.00 log 2
SEQ ID NO: 650, Dihydrolipoyl dehydrogenase mitochondrial [143], DLD
  L/H ratio of acetylated peptide […](ac)QNK: 0.00 log 2
SEQ ID NO: 651, CDGSH iron-sulfur domain-containing protein 1 [37], CISD1
  L/H ratio of acetylated peptide FYVK(ac)DHR: 0.00 log 2
SEQ ID NO: 653, Stress-70 protein mitochondrial [288], HSPA9
  L/H ratio of acetylated peptide HIVK(ac)EFK: 0.00 log 2
SEQ ID NO: 654, Isoform A of Phosphate carrier protein mitochondrial [214], SLC25A3
  L/H ratio of acetylated peptide MYKEEGLK(ac)AFYK: 0.00 log 2
SEQ ID NO: 657, Isoform 1 of Clathrin heavy chain 1 [1264], CLTC
  L/H ratio of acetylated peptide […](ac)EFR: 0.00 log 2
SEQ ID NO: 659, Annexin A6 [81], ANXA6
  L/H ratio of acetylated peptide YELTGK(ac)FER: 0.00 log 2
SEQ ID NO: 661, NADH dehydrogenase [ubiquinone] 1 alpha subcomplex subunit 5 [60], NDUFA5
  L/H ratio of acetylated peptide LAMVK(ac)AEPDVK: 0.00 log 2
SEQ ID NO: 662, NADP-dependent malic enzyme mitochondrial [119], ME3
  L/H ratio of acetylated peptide NEK(ac)LFYR: 0.00 log 2
SEQ ID NO: 664, Thioredoxin-dependent peroxide reductase mitochondrial [91], PRDX3
  L/H ratio of acetylated peptide DLSLDDFK(ac)GK: 0.00 log 2
SEQ ID NO: 669, 40S ribosomal protein S13 [34], RPS13
  L/H ratio of acetylated peptide LTSDDVK(ac)EQIYK: 0.00 log 2
SEQ ID NO: 670, Isoform alpha-enolase of Alpha-enolase [343], ENO1
  L/H ratio of acetylated peptide SCNCLLLK(ac)[…]: 0.00 log 2
SEQ ID NO: 671, Methyltransferase-like protein 7A [105], METTL7A
  L/H ratio of acetylated peptide […](ac)FLIK: 0.00 log 2
SEQ ID NO: 672, Annexin A6 [442], ANXA6
  L/H ratio of acetylated peptide […](ac)QLK: 0.00 log 2
SEQ ID NO: 678, Isoform 1 of Enoyl-CoA delta isomerase 1 mitochondrial [89], ECI1
  L/H ratio of acetylated peptide LENDK(ac)SFR: 0.00 log 2
SEQ ID NO: 679, Isoform 1 of Nucleoside diphosphate kinase B [39], NME1, NME2, NME1-NME2
  L/H ratio of acetylated peptide LVAMK(ac)FLR: 0.00 log 2
SEQ ID NO: 688, Isoform alpha-enolase of Alpha-enolase [256], ENO1
  L/H ratio of acetylated peptide SGK(ac)YDLDFK: 0.00 log 2
SEQ ID NO: 689, cDNA FLJ61478 highly similar to Succinate dehydrogenase (ubiquinone) flavoprotein subunit mitochondrial [547], SDHA
  L/H ratio of acetylated peptide LYGDLK(ac)HLK: 0.00 log 2
SEQ ID NO: 692, Isoform 1 of Myosin-9 [1459], MYH9
  L/H ratio of acetylated peptide TISAK(ac)YAEER: 0.00 log 2
SEQ ID NO: 693, Chromobox protein homolog 3 [5], CBX3
  L/H ratio of acetylated peptide (ac)ASNK(ac)TTLQK: 0.00 log 2
SEQ ID NO: 699, Histone H2B type 2-F [21], HIST2H2BF
  L/H ratio of acetylated peptide KAVTK(ac)VQK: 0.00 log 2
SEQ ID NO: 700, Dihydrolipoyl dehydrogenase mitochondrial [267], DLD
  L/H ratio of acetylated peptide ILQK(ac)QGFK: 0.00 log 2
SEQ ID NO: 701, Trifunctional enzyme subunit alpha mitochondrial [353], HADHA
  L/H ratio of acetylated peptide NK(ac)FGAPQK: 0.00 log 2
SEQ ID NO: 702, Isocitrate dehydrogenase [NAD] subunit gamma mitochondrial [221], IDH3G
  L/H ratio of acetylated peptide VTAVHK(ac)ANIMK: 0.00 log 2
SEQ ID NO: 703, Protein FAM3C [67], FAM3C
  L/H ratio of acetylated peptide ACPEK(ac)HFAFK: 0.00 log 2
SEQ ID NO: 705, Ubiquitin-60S ribosomal protein L40 [88], UBA52
  L/H ratio of acetylated peptide QLAQK(ac)YNCDK: 0.00 log 2
SEQ ID NO: 706, Isoform 1 of ATP synthase subunit d mitochondrial [95], ATP5H
  L/H ratio of acetylated peptide […](ac)EDVK: 0.00 log 2
SEQ ID NO: 708, ATP synthase subunit beta mitochondrial [522], ATP5B
  L/H ratio of acetylated peptide ADK(ac)LAEEHSS: 0.00 log 2
SEQ ID NO: 709, Superoxide dismutase [Mn] mitochondrial [130], SOD2
  L/H ratio of acetylated peptide DFGSFDK(ac)FK: 0.00 log 2
SEQ ID NO: 711, cDNA FLJ75110 highly similar to Homo sapiens PHD finger protein 15 (PHF15) mRNA 3[2:38], PHF15
  L/H ratio of acetylated peptide CSK(ac)LPSSTK(ac)SGWPR: 0.00 log 2
SEQ ID NO: 712, Histone H2B type 1-M [21], HIST1H2BM
  L/H ratio of acetylated peptide KAINK(ac)AQK: 0.00 log 2
SEQ ID NO: 714, Putative annexin A2-like protein [157], ANXA2P2
  L/H ratio of acetylated peptide TDLEK(ac)[…]: 0.00 log 2
SEQ ID NO: 718, Malate dehydrogenase mitochondrial [301], MDH2
  L/H ratio of acetylated peptide KGIEK(ac)NLGIGK: 0.00 log 2
SEQ ID NO: 720, Putative ATP-dependent Clp protease proteolytic subunit mitochondrial [211], CLPP
  L/H ratio of acetylated peptide QLYNIYAK(ac)HTK: 0.00 log 2
SEQ ID NO: 721, 60 kDa heat shock protein mitochondrial [364], HSPD1
  L/H ratio of acetylated peptide GKGDK(ac)AQIEK: 0.00 log 2
SEQ ID NO: 722, 60S ribosomal protein L32 [76], RPL32
  L/H ratio of acetylated peptide K(ac)FLVHNVK: 0.00 log 2
